Assay results taken from US4894458A, “Quinolonecarboxylic acid derivatives and their preparation” (Kyorin Pharmaceutical Co., Ltd., priority 1986, dated 1990).
≈ marks a conversion by molar mass, not a printed value. Like-named read-outs stand apart in the source and are kept apart here.

What was measured:
Assay type in all cases: cell-based
[1] = system: Bacillus subtilis PCI 219; test: In vitro antibacterial activity (aerobic bacteria), MIC; conditions: PCI219
[2] = system: Acinetobacter anitratus IID 876; test: as above; conditions: Acinetobacter calcoaceticus, IID876, Gram -, 10^6 cells/ml, read-out: MIC
Method: (§1) Minimal inhibitory concentrations (MICs) were determined in accordance with the method recommended by Japan Society of Chemotherapy.

[3] = system: E. coli ATCC 10536; test: as above; conditions: Escherichia coli, ATCC10536, Gram -, 10^6 cells/ml
Method: as §1

[4] = system: K. pneumoniae 1-220S; test: as above; conditions: Klebsiella pneumoniae, 1220S, Gram -, 10^6 cells/ml
Method: as §1

[5] = system: Morganella morganii IID 602; test: as above; conditions: Morganella morganii, IID602, Gram -, 10^6 cells/ml, read-out: MIC
Method: as §1

[6] = system: P. mirabilis IID 994; test: as above; conditions: Proteus mirabilis, IID994, Gram -, 10^6 cells/ml
Method: as §1

[7] = system: Proteus vulgaris IFO 3167; test: as above; conditions: IFO3167, Gram -, 10^6 cells/ml
Method: as §1

[8] = system: Pseudomonas aeruginosa V-1; test: as above; conditions: Pseudomonas aeruginosa, V1, aerobic; Gram -; 10^6 cells/ml; read-out: MIC
Method: as §1

[9] = system: S. aureus IID 670 (Terajima); test: as above; conditions: Staphylococcus aureus, IID670, Gram +, 10^6 cells/ml
Method: as §1

[10] = system: S. epidermidis IID 866; test: as above; conditions: Staphylococcus epidermidis, IID866, Gram +, 10^6 cells/ml
Method: as §1

[11] = system: Serratia marcescens IID 618; test: as above; conditions: IID618, Gram -, 10^6 cells/ml
Method: as §1

[12] = system: Shigella sonnei IID 969; test: as above; conditions: IID969, Gram -, 10^6 cells/ml
Method: as §1

[13] = system: Staphylococcus aureus 209 P; test: as above; conditions: Gram +, 10^6 cells/ml
Method: as §1

[14] = system: Escherichia coli NIHJ JC-2; test: as above; conditions: NIHJJC2, aerobic, Gram -, 10^6 cells/ml
[15] = system: Klebsiella pneumoniae KY(GN)6445; test: as above
[16] = system: Enterobacter cloacae IID 977; test: as above; conditions: IID977
[17] = system: Citrobacter freundii IID 976; test: as above; conditions: Citrobacter freundii
[18] = system: Salmonella enteritidis IID 604; test: as above; conditions: Salmonella enterica
[19] = system: P. aeruginosa IFO 12689; test: as above; conditions: Pseudomonas aeruginosa, IFO12689
[20] = system: P. aeruginosa IID 1210; test: as above; conditions: Pseudomonas aeruginosa, IID1210, aerobic; Gram -; 10^6 cells/ml
[21] = system: P. cepacia GIFU 518; test: as above; conditions: Burkholderia cepacia, GIFU518
[22] = system: P. maltophilia GIFU 2491; test: as above; conditions: Stenotrophomonas maltophilia, GIFU2491
[23] = system: Yersinia enterocolitica IID 981; test: microbe, parasite or virus in culture; conditions: IID981
[24] = system: Alcaligenes faecalis 0114002; test: In vitro antibacterial activity (aerobic bacteria), MIC; conditions: Alcaligenes faecalis, 0114002, aerobic; Gram -; 10^6 cells/ml
[25] = system: Bacteroides fragilis GM 7000; test: In vitro antibacterial activity (anaerobic bacteria), MIC; conditions: GM7000
[26] = system: B. fragilis 0558; test: as above; conditions: Bacteroides fragilis
[27] = system: B. fragilis 25285; test: as above; conditions: Bacteroides fragilis
[28] = system: B. distasonis 8503; test: as above; conditions: Parabacteroides distasonis, Gram -, 10^6 cells/ml
[29] = system: B. thetaiotaomicron (0661); test: as above; conditions: Bacteroides thetaiotaomicron
[30] = system: Fusobacterium necrophorum S-45; test: as above; conditions: S45
[31] = system: F. varium KYA 8501; test: as above; conditions: Fusobacterium varium, KYA8501
[32] = system: Eubacterium lentum GAI 5242; test: as above; conditions: Eggerthella lenta, GAI5242
[33] = system: Propionibacterium acens 11828; test: as above
[34] = system: Peptococcus magnus KY 017; test: as above; conditions: Finegoldia magna, KY017, Gram +, 10^6 cells/ml, read-out: MIC
Method: as §1

[35] = system: Clostridium difficile I-E; test: as above; conditions: Clostridioides difficile
[36] = system: C. perfringens KYA 13123; test: microbe, parasite or virus in culture; conditions: Clostridium perfringens, KYA13123
[37] = system: C. ramosum; test: In vitro antibacterial activity (anaerobic bacteria), MIC; conditions: Thomasclavelia ramosa, anaerobic, Gram +, 10^6 cells/ml
[38] = system: Peptostreptococcus anaerobius KYA 27337; test: as above; conditions: KYA27337
[39] = system: Pst micros UPI 5464-1; test: microbe, parasite or virus in culture
[40] = system: Veillonella parvula KYA 10790; test: In vitro antibacterial activity (anaerobic bacteria), MIC; conditions: KYA10790
[41] = IID976, aerobic, Gram -, 10^6 cells/ml

SMILES | MIC [1] [µg/mL] | MIC [2] [µg/mL] | MIC [3] [µg/mL] | MIC [4] [µg/mL] | MIC [5] [µg/mL] | MIC [6] [µg/mL] | MIC [7] [µg/mL] | MIC [8] [µg/mL] | MIC [9] [µg/mL] | MIC [10] [µg/mL] | MIC [11] [µg/mL] | MIC [12] [µg/mL] | MIC [13] [µg/mL] | MIC [15] [µg/mL] | MIC [16] [µg/mL] | MIC [18] [µg/mL] | MIC [19] [µg/mL] | MIC [20] [µg/mL] | MIC [22] [µg/mL] | MIC [23] [µg/mL] | other results
Cc1c(N2CCNCC2)c(F)cc2c(=O)c(C(=O)O)cn(C3CC3)c12 [Exp. 19, 1-Cyclopropyl-6-fluoro-1,4-dihydro-8-methyl-4-oxo-7-(1-piperazinyl)-3-quinolinecarboxylic acid] | 0.05 (≈ 0.145 µM) | 0.2 (≈ 0.579 µM) | 0.05 (≈ 0.145 µM) | 0.05 (≈ 0.145 µM) | 0.1 (≈ 0.29 µM) | 0.025 (≈ 0.0724 µM) | 0.025 (≈ 0.0724 µM) | 0.1 (≈ 0.29 µM) | 0.2 (≈ 0.579 µM) | 0.2 (≈ 0.579 µM) | 0.05 (≈ 0.145 µM) | 0.025 (≈ 0.0724 µM) | 0.2 (≈ 0.579 µM) | 0.05 (≈ 0.145 µM) | 0.05 (≈ 0.145 µM) | 0.05 (≈ 0.145 µM) | 0.78 (≈ 2.26 µM) | 0.78 (≈ 2.26 µM) | 0.39 (≈ 1.13 µM) | 0.05 (≈ 0.145 µM) | MIC ([14]; read-out: MIC): 0.125 µg/mL (≈ 0.362 µM); MIC ([17]; IID976): 0.05 µg/mL (≈ 0.145 µM); MIC ([21]; aerobic, Gram -, 10^6 cells/ml): 0.78 µg/mL (≈ 2.26 µM); MIC [24]: 0.39 µg/mL (≈ 1.13 µM); MIC [25]: 0.78 µg/mL (≈ 2.26 µM); MIC [26]: 0.39 µg/mL (≈ 1.13 µM); MIC [27]: 0.78 µg/mL (≈ 2.26 µM); MIC ([28]; read-out: MIC): 1.56 µg/mL (≈ 4.52 µM); MIC ([29]; anaerobic, Gram -, 10^6 cells/ml, read-out: MIC): 6.25 µg/mL (≈ 18.1 µM); MIC [30]: 0.39 µg/mL (≈ 1.13 µM); MIC [31]: 3.13 µg/mL (≈ 9.06 µM); MIC [32]: 0.2 µg/mL (≈ 0.579 µM); MIC ([33]; anaerobic, Gram +, 10^6 cells/ml, read-out: MIC): 6.25 µg/mL (≈ 18.1 µM); MIC [34]: 0.39 µg/mL (≈ 1.13 µM); MIC [35]: 3.13 µg/mL (≈ 9.06 µM); MIC [36]: 0.2 µg/mL (≈ 0.579 µM); MIC ([37]; read-out: MIC): 6.25 µg/mL (≈ 18.1 µM); MIC [38]: 0.78 µg/mL (≈ 2.26 µM); MIC ([39]; anaerobic, Gram +, 10^6 cells/ml): 0.39 µg/mL (≈ 1.13 µM); MIC [40]: 0.39 µg/mL (≈ 1.13 µM)
Cc1c(N2C[C@@H](C)[C@@H](N)C2)c(F)cc2c(=O)c(C(=O)O)cn(C3CC3)c12 (relative stereo) [Ex. 28, 7-(3,4-cis-3-Amino-4-methyl-1-pyrrolidinyl)-1-cyclopropyl-6-fluoro-1,4-dihydro-8-methyl-4-oxo-3-quinolinecarboxylic acid] | 0.0125 (≈ 0.0348 µM) | 0.05 (≈ 0.139 µM) | 0.0063 (≈ 0.0175 µM) | 0.05 (≈ 0.139 µM) | 0.025 (≈ 0.0696 µM) | 0.025 (≈ 0.0696 µM) | 0.0063 (≈ 0.0175 µM) | 0.1 (≈ 0.278 µM) | 0.025 (≈ 0.0696 µM) | 0.05 (≈ 0.139 µM) | 0.05 (≈ 0.139 µM) | 0.0063 (≈ 0.0175 µM) | 0.025 (≈ 0.0696 µM) | 0.0125 (≈ 0.0348 µM) | 0.025 (≈ 0.0696 µM) | 0.025 (≈ 0.0696 µM) | 0.39 (≈ 1.09 µM) | 0.39 (≈ 1.09 µM) | 0.1 (≈ 0.278 µM) | 0.0125 (≈ 0.0348 µM) | MIC [14]: 0.0063 µg/mL (≈ 0.0175 µM); MIC [17, 41]: 0.0125 µg/mL (≈ 0.0348 µM); MIC ([21]; aerobic, Gram -, 10^6 cells/ml): 0.39 µg/mL (≈ 1.09 µM); MIC [24]: 0.1 µg/mL (≈ 0.278 µM); MIC [25]: 0.2 µg/mL (≈ 0.556 µM); MIC [26]: 0.1 µg/mL (≈ 0.278 µM); MIC [27]: 0.1 µg/mL (≈ 0.278 µM); MIC [28]: 0.39 µg/mL (≈ 1.09 µM); MIC [29]: 0.2 µg/mL (≈ 0.556 µM); MIC [31]: 0.78 µg/mL (≈ 2.17 µM); MIC [32]: 0.05 µg/mL (≈ 0.139 µM); MIC [33]: 0.78 µg/mL (≈ 2.17 µM); MIC [34]: 0.025 µg/mL (≈ 0.0696 µM); MIC [35]: 0.39 µg/mL (≈ 1.09 µM); MIC [36]: 0.1 µg/mL (≈ 0.278 µM); MIC [37]: 0.78 µg/mL (≈ 2.17 µM); MIC [38]: 0.2 µg/mL (≈ 0.556 µM); MIC [39]: 0.05 µg/mL (≈ 0.139 µM); MIC [40]: 0.1 µg/mL (≈ 0.278 µM)
Cc1c(N2C[C@@H](C)[C@H](N)C2)c(F)cc2c(=O)c(C(=O)O)cn(C3CC3)c12 (relative stereo) [Ex. 27, 7-(3,4-trans-3-Amino-4-methyl-1-pyrrolidinyl)-1-cyclopropyl-6-fluoro-1,4-dihydro-8-methyl-4-oxo-3-quinolinecarboxylic acid] | 0.0125 (≈ 0.0348 µM) | 0.025 (≈ 0.0696 µM) | 0.0063 (≈ 0.0175 µM) | 0.025 (≈ 0.0696 µM) | 0.05 (≈ 0.139 µM) | 0.025 (≈ 0.0696 µM) | 0.0063 (≈ 0.0175 µM) | 0.2 (≈ 0.556 µM) | 0.025 (≈ 0.0696 µM) | 0.05 (≈ 0.139 µM) | 0.05 (≈ 0.139 µM) | 0.0063 (≈ 0.0175 µM) | 0.025 (≈ 0.0696 µM) | 0.0125 (≈ 0.0348 µM) | 0.025 (≈ 0.0696 µM) | 0.025 (≈ 0.0696 µM) | 0.39 (≈ 1.09 µM) | 0.39 (≈ 1.09 µM) | 0.05 (≈ 0.139 µM) | 0.025 (≈ 0.0696 µM) | MIC [14]: 0.0063 µg/mL (≈ 0.0175 µM); MIC [17, 41]: 0.0063 µg/mL (≈ 0.0175 µM); MIC [21]: 0.2 µg/mL (≈ 0.556 µM); MIC [24]: 0.1 µg/mL (≈ 0.278 µM); MIC [25]: 0.1 µg/mL (≈ 0.278 µM); MIC [26]: 0.05 µg/mL (≈ 0.139 µM); MIC [27]: 0.05 µg/mL (≈ 0.139 µM); MIC [28]: 0.39 µg/mL (≈ 1.09 µM); MIC [29]: 0.2 µg/mL (≈ 0.556 µM); MIC [31]: 0.78 µg/mL (≈ 2.17 µM); MIC [32]: 0.05 µg/mL (≈ 0.139 µM); MIC [33]: 0.78 µg/mL (≈ 2.17 µM); MIC [34]: 0.025 µg/mL (≈ 0.0696 µM); MIC [35]: 0.39 µg/mL (≈ 1.09 µM); MIC [36]: 0.1 µg/mL (≈ 0.278 µM); MIC [37]: 0.39 µg/mL (≈ 1.09 µM); MIC [38]: 0.2 µg/mL (≈ 0.556 µM); MIC [39]: 0.05 µg/mL (≈ 0.139 µM); MIC [40]: 0.1 µg/mL (≈ 0.278 µM)
